Experiments:
Assay type in all cases: binding
Design in all cases: KINOMEscan: ABL1(F317L)-phosphorylated / KINOMEscan: ABL1(H396P)-nonphosphorylated / KINOMEscan: ABL1(H396P)-phosphorylated / KINOMEscan: ABL1(M351T)-phosphorylated / KINOMEscan: ABL1(T315I)-phosphorylated / KINOMEscan: ABL1-nonphosphorylated / KINOMEscan: ABL1-phosphorylated / KINOMEscan: ACVR2A / KINOMEscan: ACVR2B / KINOMEscan: ADCK3 / KINOMEscan: ADCK4 / KINOMEscan: AKT1 / KINOMEscan: AKT3 / KINOMEscan: ALK / KINOMEscan: ARK5 / KINOMEscan: AURKA / KINOMEscan: AURKC / KINOMEscan: BIKE / KINOMEscan: BMPR1A / KINOMEscan: BMPR1B / KINOMEscan: BMX / KINOMEscan: BRK / KINOMEscan: BRSK1 / KINOMEscan: BRSK2 / KINOMEscan: CAMK1 / KINOMEscan: CAMK1D / KINOMEscan: CAMK1G / KINOMEscan: CAMK2A / KINOMEscan: CAMK2B / KINOMEscan: AAK1 / KINOMEscan: CAMK2D / KINOMEscan: CAMK2G / KINOMEscan: ABL1(F317I)-nonphosphorylated / KINOMEscan: ABL1(F317I)-phosphorylated / KINOMEscan: ABL1(F317L)-nonphosphorylated: unit: % Ctrl
Settings in all cases: Compound Concentration 10 µM
panel of 442 kinases [1] = target: T1, panel of 442 kinases (Homo sapiens, UniProt P20794)
T1 construct: purchased KINOMEscan
T1 sequence (P20794 1-623): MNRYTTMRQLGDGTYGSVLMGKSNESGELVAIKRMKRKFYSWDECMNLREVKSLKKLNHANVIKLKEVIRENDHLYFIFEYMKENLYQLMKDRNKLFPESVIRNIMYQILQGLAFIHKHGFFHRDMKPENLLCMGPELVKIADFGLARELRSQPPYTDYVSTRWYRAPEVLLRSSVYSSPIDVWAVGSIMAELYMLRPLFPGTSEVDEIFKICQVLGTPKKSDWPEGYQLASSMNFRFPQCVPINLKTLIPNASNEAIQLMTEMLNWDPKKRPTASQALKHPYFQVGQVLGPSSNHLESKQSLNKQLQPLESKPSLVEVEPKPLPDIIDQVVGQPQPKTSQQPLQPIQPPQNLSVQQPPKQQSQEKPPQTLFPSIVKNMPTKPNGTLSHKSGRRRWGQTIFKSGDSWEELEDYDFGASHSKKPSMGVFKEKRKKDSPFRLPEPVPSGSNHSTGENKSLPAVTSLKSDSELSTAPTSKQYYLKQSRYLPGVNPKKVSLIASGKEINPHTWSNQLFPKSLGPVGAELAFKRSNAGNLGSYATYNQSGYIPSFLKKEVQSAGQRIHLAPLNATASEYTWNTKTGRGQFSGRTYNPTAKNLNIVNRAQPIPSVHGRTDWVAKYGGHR
Excerpt: (§1) We assessed the selectivity of members of this scaffold using the KINOMEscan methodology across a near comprehensive panel of 442 kinases [[18,27]].

panel of 442 kinases [2] = target: T2, panel of 442 kinases (Homo sapiens, UniProt Q13557)
T2 construct: purchased KINOMEscan
T2 sequence (Q13557 whole entry): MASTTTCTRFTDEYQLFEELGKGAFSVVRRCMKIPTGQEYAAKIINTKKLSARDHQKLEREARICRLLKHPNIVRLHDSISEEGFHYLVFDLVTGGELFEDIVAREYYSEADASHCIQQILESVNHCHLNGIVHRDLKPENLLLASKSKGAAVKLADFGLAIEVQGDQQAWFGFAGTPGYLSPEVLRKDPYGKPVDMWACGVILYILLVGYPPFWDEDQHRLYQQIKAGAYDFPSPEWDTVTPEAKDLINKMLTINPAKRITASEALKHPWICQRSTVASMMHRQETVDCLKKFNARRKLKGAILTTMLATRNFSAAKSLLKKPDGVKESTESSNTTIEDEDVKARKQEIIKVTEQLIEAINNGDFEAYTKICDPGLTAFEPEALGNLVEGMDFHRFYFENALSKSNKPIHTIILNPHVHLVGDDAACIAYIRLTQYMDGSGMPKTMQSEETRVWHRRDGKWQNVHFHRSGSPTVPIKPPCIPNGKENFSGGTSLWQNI
Excerpt: as §1

panel of 442 kinases [3] = target: T3, panel of 442 kinases (Homo sapiens, UniProt Q96NX5)
T3 construct: purchased KINOMEscan
T3 sequence (Q96NX5 whole entry): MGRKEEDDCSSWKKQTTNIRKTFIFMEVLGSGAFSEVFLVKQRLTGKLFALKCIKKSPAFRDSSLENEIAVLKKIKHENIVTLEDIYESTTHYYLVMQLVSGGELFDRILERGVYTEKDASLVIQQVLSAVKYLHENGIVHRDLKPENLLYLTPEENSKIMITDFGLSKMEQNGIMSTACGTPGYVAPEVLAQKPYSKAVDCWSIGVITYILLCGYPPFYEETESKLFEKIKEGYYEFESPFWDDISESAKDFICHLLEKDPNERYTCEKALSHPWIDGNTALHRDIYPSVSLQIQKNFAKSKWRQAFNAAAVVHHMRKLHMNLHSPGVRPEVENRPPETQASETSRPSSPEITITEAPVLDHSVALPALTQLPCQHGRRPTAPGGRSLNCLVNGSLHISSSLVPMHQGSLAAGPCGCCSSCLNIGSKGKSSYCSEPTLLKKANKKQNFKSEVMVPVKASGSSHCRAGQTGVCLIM
Excerpt: as §1

SMILES	KINOMEscan: MAK (panel of 442 kinases [1])	KINOMEscan: CAMK2D (panel of 442 kinases [2])	KINOMEscan: CAMK1G (panel of 442 kinases [3])
COc1cc(C(=O)N2CCC(N3CCN(C)CC3)CC2)ccc1Nc1ncc2c(n1)N(C)c1ccccc1C(=O)N2C [15 (LRRK2-IN-1)]	72	28	74
COc1cc(C(=O)N2CCC(N3CCN(C)CC3)CC2)ccc1Nc1ncc2c(n1)N1CCc3cccc(c31)C(=O)N2C [Compound 24]	100	62	56
COc1cc(C(=O)N2CCC(N3CCN(C)CC3)CC2)ccc1Nc1ncc2c(n1)N(C1CCCC1)c1ccccc1C(=O)N2C [Compound 25, 11-cyclopentyl-2-((2-methoxy-4-(4-(4-methylpiperazin-1-yl)piperidine-1-carbonyl)phenyl)amino)-5-methyl-5H-benzo[e]pyrimido[5,4-b][1,4]diazepin-6(11H)-one]	100	100	90
CCOc1cc(C(=O)N2CCC(N3CCN(C)CC3)CC2)ccc1Nc1ncc2c(n1)N(C1CCCC1)c1ccccc1C(=O)N2C [Compound 26]	100	96	95
